# Test system: double transgenic mice over-expressing human APP (V717I) and human PS1 (A242E)
# Assay: Amyloid plaque loading (thioflavin S staining of brain sections) in double transgenic mice model of Alzheimer's disease
# Format: in vivo
# Conditions: vs control
# Experimental: Mice over-expressing human APP with the London mutation (V717I) and human PS1 bearing the A242E mutation (APP and PS1 stand for amyloid protein precursor and preseniline 1, respectively) were used.
# Three molecules were evaluated on these double transgenic mice (6-month old): 3-Propyl-Clip-Phen (molecule B in the histogram below), Cyclo-bi-Phen (molecule G) and Clioquinol (molecule W) (C stands for control, only DMSO diluted in water).
# The molecules were initially diluted in DMSO in the presence of 2.6 equivalents of HCl and then in water and the animals were treated by i.p. injection with the two Phen derivatives at 5 mg/kg or at 10 mg/kg for Clioquinol, three times per week (monday, Wednesday and friday) during 9 consecutive weeks. 9 animals were treated for each drugs (control also included 9 animals).
# This method is used to quantify the “old” plaques.
# [1] = 5 mg/kg i.p. three times per week for 9 weeks
structure (smiles),measurement,setting,value
"Oc1c(I)cc(Cl)c2cccnc12 [Clioquinol, 5-chloro-7-iodo-8-hydroxyquinoline]",plaque loading reduction,10 mg/kg i.p. three times per week for 9 weeks,28%
c1cnc2c(c1)ccc1cc(OCCCOc3cnc4c(ccc5cccnc54)c3)cnc12 [3-Propyl-Clip-Phen],plaque loading increase,[1],16%
c1nc2c3ccc4cc(cnc42)OCCCOc2cnc4c(ccc5cc(cnc54)OCCCOc1c3)c2 [Cyclo-bi-Phen],plaque loading reduction,[1],38%

# From patent US20070185072A1, “Nitrogeneous polycyclic derivatives useful as chelators of metal ions and their applications” (priority 2003, published 2007)
